# Data reported in paper PMC4019989 (Clinical cancer research : an official journal of the …, 2009).
# Tested on: patients with relapsed or refractory hematologic malignancies
# Assay: Phase 1 dose escalation: adverse events, DLT, MTD
# Assay type: in vivo
# [1] = All patients (N = 29), all dose cohorts
smiles,measurement,setting,value
CC(C)C[C@H](NC(=O)[C@H](CCc1ccccc1)NC(=O)CN1CCOCC1)C(=O)N[C@@H](Cc1ccccc1)C(=O)N[C@@H](CC(C)C)C(=O)[C@@]1(C)CO1 [carfilzomib],"Grade 3 and 4 adverse events: ALT increased, Grades 3-4","All patients (N = 29), Table 4",1 (3) n (%)
same,"Grade 3 and 4 adverse events: AST increased, Grade 3","All patients (N = 29), Table 4",1 (3) n (%)
same,"Grade 3 and 4 adverse events: AST increased, Grade 4","All patients (N = 29), Table 4",0 (0) n (%)
same,"Grade 3 and 4 adverse events: AST increased, Grades 3-4","All patients (N = 29), Table 4",1 (3) n (%)
same,"Grade 3 and 4 adverse events: Abdominal pain, Grade 3","All patients (N = 29), Table 4",1 (3) n (%)
same,"Grade 3 and 4 adverse events: Abdominal pain, Grade 4","All patients (N = 29), Table 4",0 (0) n (%)
same,"Grade 3 and 4 adverse events: Abdominal pain, Grades 3-4","All patients (N = 29), Table 4",1 (3) n (%)
same,"Grade 3 and 4 adverse events: Anemia, Grades 3-4","All patients (N = 29), Table 4",1 (3) n (%)
same,"Grade 3 and 4 adverse events: Any, Grade 3","All patients (N = 29), Table 4",11 (38) n (%)
same,"Grade 3 and 4 adverse events: Any, Grades 3-4","All patients (N = 29), Table 4",14 (48) n (%)
same,"Grade 3 and 4 adverse events: Chills, Grade 3","All patients (N = 29), Table 4",1 (3) n (%)
same,"Grade 3 and 4 adverse events: Chills, Grade 4","All patients (N = 29), Table 4",0 (0) n (%)
same,"Grade 3 and 4 adverse events: Chills, Grades 3-4","All patients (N = 29), Table 4",1 (3) n (%)
same,"Grade 3 and 4 adverse events: Disease progression, Grade 3","All patients (N = 29), Table 4",1 (3) n (%)
same,"Grade 3 and 4 adverse events: Disease progression, Grade 4","All patients (N = 29), Table 4",0 (0) n (%)
same,"Grade 3 and 4 adverse events: Disease progression, Grades 3-4","All patients (N = 29), Table 4",1 (3) n (%)
same,"Grade 3 and 4 adverse events: Hyperglycemia, Grade 3","All patients (N = 29), Table 4",1 (3) n (%)
same,"Grade 3 and 4 adverse events: Hyperglycemia, Grade 4","All patients (N = 29), Table 4",0 (0) n (%)
same,"Grade 3 and 4 adverse events: Hyperglycemia, Grades 3-4","All patients (N = 29), Table 4",1 (3) n (%)
same,"Grade 3 and 4 adverse events: Neutropenia, Grade 3","All patients (N = 29), Table 4",1 (3) n (%)
same,"Grade 3 and 4 adverse events: Neutropenia, Grade 4","All patients (N = 29), Table 4",0 (0) n (%)
same,"Grade 3 and 4 adverse events: Neutropenia, Grades 3-4","All patients (N = 29), Table 4",1 (3) n (%)
same,"Grade 3 and 4 adverse events: Pain, Grade 3","All patients (N = 29), Table 4",1 (3) n (%)
same,"Grade 3 and 4 adverse events: Pain, Grade 4","All patients (N = 29), Table 4",0 (0) n (%)
same,"Grade 3 and 4 adverse events: Pain, Grades 3-4","All patients (N = 29), Table 4",1 (3) n (%)
same,"Grade 3 and 4 adverse events: Skin infection, Grade 3","All patients (N = 29), Table 4",1 (3) n (%)
same,"Grade 3 and 4 adverse events: Skin infection, Grade 4","All patients (N = 29), Table 4",0 (0) n (%)
same,"Grade 3 and 4 adverse events: Skin infection, Grades 3-4","All patients (N = 29), Table 4",1 (3) n (%)
same,"Grade 3 and 4 adverse events: Syncope, Grade 3","All patients (N = 29), Table 4",1 (3) n (%)
same,"Grade 3 and 4 adverse events: Syncope, Grade 4","All patients (N = 29), Table 4",0 (0) n (%)
same,"Grade 3 and 4 adverse events: Syncope, Grades 3-4","All patients (N = 29), Table 4",1 (3) n (%)
same,"Grade 3 and 4 adverse events: Thrombocytopenia, Grade 3","All patients (N = 29), Table 4",0 (0) n (%)
same,"Adverse event Any, All Grades",[1],29 (100) n (%)
same,"Adverse event Any, Grade 1",[1],4 (14) n (%)
same,"Adverse event Any, Grade 2",[1],11 (38) n (%)
same,"Adverse event Any, Grade 3",[1],11 (38) n (%)
same,"Adverse event Any, Grade 4",[1],3 (10) n (%)
same,"Adverse event Constipation, All Grades",[1],6 (21) n (%)
same,"Adverse event Constipation, Grade 1",[1],5 (17) n (%)
same,"Adverse event Constipation, Grade 2",[1],1 (3) n (%)
same,"Adverse event Constipation, Grade 3",[1],0 (0) n (%)
same,"Adverse event Constipation, Grade 4",[1],0 (0) n (%)
same,"Adverse event Cough, All Grades",[1],8 (28) n (%)
same,"Adverse event Cough, Grade 1",[1],8 (28) n (%)
same,"Adverse event Cough, Grade 2",[1],0 (0) n (%)
same,"Adverse event Cough, Grade 3",[1],0 (0) n (%)
same,"Adverse event Cough, Grade 4",[1],0 (0) n (%)
same,"Adverse event Diarrhea, All Grades",[1],10 (35) n (%)
same,"Adverse event Diarrhea, Grade 1",[1],7 (24) n (%)
same,"Adverse event Diarrhea, Grade 2",[1],3 (10) n (%)
same,"Adverse event Diarrhea, Grade 3",[1],0 (0) n (%)
same,"Adverse event Diarrhea, Grade 4",[1],0 (0) n (%)
same,"Adverse event Pyrexia, Grade 1",[1],5 (17) n (%)
same,"Adverse event Pyrexia, Grade 2",[1],3 (10) n (%)
same,"Adverse event Pyrexia, Grade 3",[1],0 (0) n (%)
same,"Adverse event Pyrexia, Grade 4",[1],0 (0) n (%)
same,Patients who discontinued study treatment due to adverse events,Four of the 29 patients,14%
same,Patients with grade 2 anemia,across all cohorts,three
same,Incidence of anemia,"across all cohorts, five patients, doses 1.2 to 15 mg/m^2",17%
same,"Adverse event Dyspnea, All Grades","human, in vivo",8 (28) n (%)
same,"Adverse event Dyspnea, Grade 1","human, in vivo",6 (21) n (%)
same,"Adverse event Dyspnea, Grade 2","human, in vivo",0 (0) n (%)
same,"Adverse event Dyspnea, Grade 3","human, in vivo",1 (3) n (%)
same,"Adverse event Dyspnea, Grade 4","human, in vivo",1 (3) n (%)
same,"Adverse event Exertional dyspnea, All Grades","human, in vivo",6 (21) n (%)
same,"Adverse event Exertional dyspnea, Grade 1","human, in vivo",6 (21) n (%)
same,"Adverse event Exertional dyspnea, Grade 2","human, in vivo",0 (0) n (%)
same,"Adverse event Exertional dyspnea, Grade 3","human, in vivo",0 (0) n (%)
same,"Adverse event Exertional dyspnea, Grade 4","human, in vivo",0 (0) n (%)
